Data taken from patent US9345389B2, “Additional systems and methods for providing real-time anatomical guidance in a diagnostic or therapeutic procedure” (EMORY UNIVERSITY, priority 2010, dated 2016).

Assays:
[1] = test system: 4T1 breast tumors; experiment: In vivo and intra-operative tumor detection with handheld spectroscopic pen device; parameters: species or system mouse; settings: ICG 357 μg/kg i.v.
Protocol: All in vivo murine studies were performed under an approved protocol by the Emory University IACUC. The mouse mammary carcinoma cell line 4T1, which stably expresses a firefly luciferase gene, was obtained from Dr. Lily Yang at Emory University (Atlanta, Ga.). 4T1 cells were cultured in DMEM containing 10% FBS and 1× antibiotic/antimycotic agent. Prior to injection into mice, the cells were washed two times with PBS and diluted in sterile PBS to a final concentration of 2×10^7 cells/mL. Mammary tumors were inoculated into nude mice by the subcutaneous administration of 2×10^6 4T1 cells into the mouse flank. Once the tumors were approximately 4 mm in diameter, ICG was administered intravenously (i.v.) via a tail vein at a dose of 357 μg/kg. After 24 h, mice were anesthetized by intraperitoneal (i.p.) injection of a 2.5% solution of tribromoethanol (350 mg/kg). Tumor-bearing mice undergoing bioluminescence imaging were administered i.p. 100 μL, of a luciferin solution (30 mg/mL). Bioluminescent images were acquired on a Kodak In-Vivo FX Imaging System from Carestream Molecular Imaging (Rochester, N.Y.). Corresponding bright-field images were taken for anatomical reference of the bioluminescence signal. A series of spectra were acquired on tumor-bearing mice using the handheld spectroscopic pen device. First, the position of the handheld spectroscopic pen device was fixed to about 1-2 cm above the location of the acquisition area on the mouse. Spectra were collected in 1 s and were obtained from several locations, including directly over the center of the tumor and the peritumoral region. After the spectra were acquired, the integrated signal intensity was calculated. The signal intensity was compared to both the bright-field anatomical location and the bioluminescence signal.
In vivo investigations were conducted to test the ability of the handheld spectroscopic pen device to detect intratumoral deposition of ICG after intravenous infusion. This contrast agent has been approved by the U.S. Food and Drug Administration (FDA) and is indicated for various uses in humans, such as for determining cardiac output, hepatic function and liver blood flow, and for ophthalmic angiography. To assess degree of tumor contrast enhancement using ICG, mice were used in which 4T1 tumor cells (2×10^6 in number) were subcutaneously injected 18 days prior to imaging. The tumor cells were genetically engineered to express the firefly luciferase gene; intravenous injection of luciferin after tumor development causes these cells to emit bioluminescent light and allows one to determine the precise location of tumors using bioluminescence imaging. […]

[2] = test system: polyps; experiment: Detection of murine GI polyps (Apcmin/+ FAP model) with SpectroPen; assay type: in vivo, mouse
[3] = Optical properties of ICG; assay type: physicochemical; settings: 785 nm excitation
From the text: The ability of the handheld spectroscopic pen device to differentiate contrast agent signals from the autofluorescence and Raman scattering of major tissue/organ types (i.e. fat, liver and lung) was first examined. […] At 785 nm excitation, ICG has a fluorescence peak at 816 nm, while fat has a background fluorescence peak at 805 nm plus resolvable Raman signals at 862, 1070, 1297, 1439, and 1652 cm^−1 (corresponding to 842, 857, 874, 885, and 902 nm in wavelength, respectively). ICG buried in fat has identifiable contributions of both ICG and fat (e.g., ICG fluorescence at 816 nm and the fat Raman peaks at 874 and 885 nm).

[4] = after intravenous administration, bound to serum proteins; cited from earlier work
[5] = stated as known; cited from earlier work
[6] = Inspection of internal organs and behavior for toxicity in Apcmin/+ mice

**Q.** With `CC1(C)C(/C=C/C=C/C=C/C=C2\N(CCCCS(=O)(=O)O)c3ccc4ccccc4c3C2(C)C)=[N+](CCCCS(=O)(=O)[O-])c2ccc3ccccc3c21` [ICG, Indocyanine green] as the compound, how does the “signal of excised tumors vs surgical cavity” value ([1]; after surgical removal) read?
**A.** The value was 10 fold.

**Q.** And the “integrated signal intensity, tumor areas vs normal regions” value ([1]; mice with 4T1 tumors, 24 h)?
**A.** The value was about 10 times.

**Q.** And the “signal at adjacent edges (less than 2 mm from the tumor) vs more remote areas” value ([1]; mice with 4T1 tumors, 24 h)?
**A.** Its value is 5-6 times.

**Q.** What about the “ICG signal at positive surgical margin vs adjacent tissue” value ([1]; residual tumor at margin of cavity) of the same compound?
**A.** Its value is 5 times.

**Q.** What about the “ICG signal in polyps vs background” value ([2]; 2 mg/kg ICG intraperitoneally, 20 h, GI tract ex vivo) of the same compound?
**A.** Its value is “greater than in the background”.

**Q.** What about the “ICG signal in polyps vs background tissue” value ([2]; 2 mg/kg ICG intravenously, 20 h, GI tract ex vivo) of the same compound?
**A.** Its value is “higher signal in polyps then in the background tissue”.

**Q.** And the “signal in GI tract, i.p. vs i.v. route” value ([2]; 2 mg/kg ICG, 20 after injection)?
**A.** The value was “larger signal in the GI tract compared to mouse injected i.v”.

**Q.** What about the “signal from colon polyp compared to background” value ([2]; Apcmin/+ mouse, colon, 2 mg/kg ICG i.v., 20 h) of the same compound?
**A.** The value was at least 5 fold.

**Q.** What about the fluorescence peak [3] of the same compound?
**A.** Its fluorescence peak is 816 nm.

**Q.** And the “hydrodynamic size (diameter) after protein binding” value [4]?
**A.** Its value is 6-8 nm.

**Q.** What about the route of excretion [5] of the same compound?
**A.** Its route of excretion is “secreted entirely into bile”.

**Q.** And the “appearance of internal organs” value ([6]; 2 mg/kg ICG intraperitoneally, 20 h, patent attributes to anemia from polyps)?
**A.** The value was “pale color was immediately noticed, especially in the liver and kidneys”.

**Q.** And the behavioral changes ([6]; 2 mg/kg ICG via tail vein)?
**A.** The behavioral changes was “no dramatic behavioral changes”.
